Columns and labels:
[1] = In vivo pharmacokinetic study in cynomolgus monkeys; parameters: species or system cynomolgus monkey; conditions: male cynomolgus monkeys
[2] = test system: plasma protein; assay: Plasma protein binding rate test, human (equilibrium dialysis); type: in vitro ADME; conditions: 37° C., 4 hours
From the text: (§1) The sample was thoroughly mixed.

[3] = test system: plasma protein; assay: Plasma protein binding rate test, cynomolgus monkey (equilibrium dialysis); type: in vitro ADME; conditions: 37° C., 4 hours
From the text: as §1

[4] = test system: plasma protein; assay: Plasma protein binding rate test, SD rat (equilibrium dialysis); type: in vitro ADME; conditions: 37° C., 4 hours
From the text: as §1

[5] = In vivo pharmacokinetics study in rats; parameters: species or system SD rat; conditions: male SD rats, oral 2 mg/kg
[6] = test system: MDR1-MDCKII cells; assay: Permeability test in MDR1-MDCKII monolayer cell model; type: in vitro ADME; conditions: 2 μM, pH 7.40, 2.5 hours, 37±1° C.
Description: Experimental objective: The permeability and efflux ratio of the compound of the present disclosure were determined using the MDR1-MDCKII monolayer cell model to assess its membrane permeability and potential for P-gp-mediated efflux transport.
Experimental protocol: MDR1-MDCKII cells (obtained from the Netherlands Cancer Institute) were seeded in 96-well plates (obtained from Corning) at a cell density of 3.33×10^5 cells/mL and cultured for 4 to 7 days to form confluent cell monolayers. Hank's balanced salt solution containing 10 mM HEPES (pH 7.40) was used as the transport buffer. The test compound was evaluated for bidirectional transport at a concentration of 2 μM, with the DMSO concentration in the incubation system maintained below 1%. After adding the samples, the cell plate was incubated at 37±1° C., 5% CO2, and saturated humidity for 2.5 hours. All samples were quantitatively analyzed using the LC-MS/MS method. The apparent permeability coefficient (Papp, cm/s) and efflux ratio (ER) were calculated using the following formula. Apparent permeability coefficient (Papp, cm/s) was calculated using the following formula: Papp=(dCr/dt)×Vr/(A×C0). Herein, dCr/dt represents the cumulative concentration of the compound at the receiving end per unit time (μM/s); Vr is the volume of the solution at the receiving end (with solution volumes at the apical and basolateral ends being 0.075 mL and 0.250 mL, respectively); A is the relative surface area of the cell monolayer (0.143 cm^2); C0 is the initial concentration of the test substance at the dosing end (μM) or the peak area ratio of the reference substance. The efflux ratio was calculated using the following formula: ER=Papp(BA)/Papp(AB).

[7] = Plasma protein binding rate test, SD rat (equilibrium dialysis); type: in vitro ADME; conditions: 37° C., read-out: Plasma protein binding rate (%) in SD rats (converted)
From the text: as §1

[8] = In vitro liver microsome metabolic stability study; type: in vitro ADME; conditions: human liver microsomes 0.5 mg/mL, compound 1 μM, 37° C., up to 60 minutes
Description: Stock solution: 10 mM in DMSO.
Only 54 μL of microsomal working solution, 6 μL of NADPH regeneration system working solution, and 180 μL of stop solution were added to the blank plate.
LC-MS/MS analysis was performed.

Row | T1/2 ([1]; oral 1 mg/kg) [h] | AUC0-24 h ([1]; oral 1 mg/kg, plasma) [µM·h] | Human plasma protein binding rate (%) [2] [%] | Plasma protein binding rate (%) in cynomolgus monkeys [3] [%] | T1/2 [5] [h] | AUC0-24 h ([5]; plasma) [µM·h] | Apparent permeability coefficient (Papp (AB)) [6] | fraction unbound at 4 h [7] | Intrinsic hepatic clearance CLint(liver) [8] [mL/min/kg] | Structure (SMILES) | Plasma protein binding rate (%) in SD rats [4] [%] | F ([1]; oral 3 mg/kg) [%] | T1/2 ([1]; oral 3 mg/kg) [h] | AUC0-24 h ([1]; oral 3 mg/kg, plasma) [µM·h] | Cmax ([1]; oral 3 mg/kg, plasma) [µM]
1 | 5.30 | 7.292 | 82.7 | 78.1 | 1.34 | 8.129 |  |  |  | CCC(=O)N[C@@H]1CCCc2c(-c3cc4c(s3)N(C)C(=O)CC4)cncc21 (single isomer, unassigned) [Compound 017] | 94.9 |  |  |  | 
2 | 5.35 | 7.586 | 80.9 | 79.5 |  |  | 24.6 10^-6 cm/s | 0.08 | <8.6 | CCC(=O)N[C@@H]1CCCc2c(-c3cc(F)c4c(ccc(=O)n4C)c3)cncc21 (single isomer, unassigned) [Compound 018] |  |  |  |  | 

Row | Structure (SMILES) | T1/2 ([1]; oral 1 mg/kg) [h] | AUC0-24 h ([1]; oral 1 mg/kg, plasma) [µM·h] | Human plasma protein binding rate (%) [2] [%] | Plasma protein binding rate (%) in cynomolgus monkeys [3] [%] | T1/2 [5] [h] | AUC0-24 h ([5]; plasma) [µM·h] | Apparent permeability coefficient (Papp (AB)) [6] | fraction unbound at 4 h [7] | Intrinsic hepatic clearance CLint(liver) [8] [mL/min/kg] | Plasma protein binding rate (%) in SD rats [4] [%] | F ([1]; oral 3 mg/kg) [%] | T1/2 ([1]; oral 3 mg/kg) [h] | AUC0-24 h ([1]; oral 3 mg/kg, plasma) [µM·h] | Cmax ([1]; oral 3 mg/kg, plasma) [µM]
3 | CCC(=O)NC1CCCc2c(-c3cc4ccc(=O)n(C)c4cc3F)cncc21 (single isomer, unassigned) [Compound 019] |  |  | 76.2 | 75.2 |  |  |  |  |  | 87.1 | 113 | 4.65 | 23.864 | 3.79
